Experimental data from the supplement of paper PMC10307832.

Legend:
Test in all cases: relative viability (nuclei count vs DMSO), 5 days (fraction); higher = more cells survive
Carboplatin + Trametinib = compound: C1CC(C1)(C(=O)O)C(=O)O.[NH2-].[NH2-].[Pt+2] [Carboplatin] + CC(=O)Nc1cccc(-n2c(=O)n(C3CC3)c(=O)c3c(Nc4ccc(I)cc4F)n(C)c(=O)c(C)c32)c1 [Trametinib] (partner 0.02 µM)
Outline: (§1)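 Cells from lung cancer lines were seeded into 1536-well plates and, one day later, dosed by pin tool. Treatments were either a single drug or a fixed dose of an anchor drug with five library-drug doses (not always all listed) in √10 steps. After 5 days, nuclei were stained in a one-step fixation (final 0.05% Triton X-100, 1% formaldehyde, 1 ug/ml Hoechst) and counted on 4× images, and relative viability is the treated-to-vehicle nuclei ratio, as the median of duplicate plates.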

Carboplatin + OSI-027 = compound: C1CC(C1)(C(=O)O)C(=O)O.[NH2-].[NH2-].[Pt+2] [Carboplatin] + COc1cccc2cc(-c3nc([C@H]4CC[C@H](C(=O)O)CC4)n4ncnc(N)c34)[nH]c12 [OSI-027] (partner 0.5 µM)
Outline: as §1

MLN4924 + Linsitinib = compound: NS(=O)(=O)OC[C@@H]1C[C@@H](n2ccc3c(N[C@H]4CCc5ccccc54)ncnc32)C[C@@H]1O [MLN4924] + C[C@]1(O)C[C@@H](c2nc(-c3ccc4ccc(-c5ccccc5)nc4c3)c3c(N)nccn32)C1 [Linsitinib] (partner 1 µM)
Outline: as §1

MLN4924 + Tozasertib = compound: NS(=O)(=O)OC[C@@H]1C[C@@H](n2ccc3c(N[C@H]4CCc5ccccc54)ncnc32)C[C@@H]1O [MLN4924] + Cc1cc(Nc2cc(N3CCN(C)CC3)nc(Sc3ccc(NC(=O)C4CC4)cc3)n2)n[nH]1 [Tozasertib] (partner 0.1 µM)
Outline: as §1

Row | Cell Line | relative viability (Carboplatin + Trametinib; first compound 0.08 µM) | relative viability (Carboplatin + Trametinib; first compound 0.253 µM) | relative viability (Carboplatin + Trametinib; first compound 0.8 µM) | relative viability (Carboplatin + Trametinib; first compound 2.53 µM) | relative viability (Carboplatin + Trametinib; first compound 8 µM) | relative viability (Carboplatin + OSI-027; first compound 0.08 µM) | relative viability (Carboplatin + OSI-027; first compound 0.253 µM) | relative viability (Carboplatin + OSI-027; first compound 0.8 µM) | relative viability (Carboplatin + OSI-027; first compound 2.53 µM) | relative viability (Carboplatin + OSI-027; first compound 8 µM) | relative viability (MLN4924 + Linsitinib; first compound 0.1265 µM) | relative viability (MLN4924 + Linsitinib; first compound 0.4 µM) | relative viability (MLN4924 + Linsitinib; first compound 1.265 µM) | relative viability (MLN4924 + Linsitinib; first compound 4 µM) | relative viability (MLN4924 + Tozasertib; first compound 0.04 µM) | relative viability (MLN4924 + Tozasertib; first compound 0.1265 µM) | relative viability (MLN4924 + Tozasertib; first compound 0.4 µM) | relative viability (MLN4924 + Tozasertib; first compound 1.265 µM) | relative viability (MLN4924 + Tozasertib; first compound 4 µM) | relative viability (MLN4924 + Linsitinib; first compound 0.04 µM)
1 | NCI-H2228 | 0.678 | 0.575 | 0.616 | 0.543 | 0.344 | 0.685 | 0.63 | 0.597 | 0.64 | 0.349 | 0.419 | 0.355 | 0.163 | 0.18 | 0.259 | 0.195 | 0.122 | 0.144 | 0.123 | 
2 | NCI-H2347 | 0.319 | 0.271 | 0.244 | 0.287 | 0.265 | 0.42 | 0.421 | 0.409 | 0.423 | 0.324 | 0.731 | 0.57 | 0.424 | 0.41 | 0.647 | 0.546 | 0.386 | 0.283 | 0.241 | 0.908
3 | NCI-H2405 | 0.752 | 0.661 | 0.635 | 0.633 | 0.606 | 0.683 | 0.624 | 0.624 | 0.642 | 0.56 | 1.12 | 0.686 | 0.246 | 0.245 | 0.802 | 0.644 | 0.484 | 0.231 | 0.266 | 1.09
4 | NCI-H3122 | 0.227 | 0.259 | 0.251 | 0.251 | 0.226 | 0.985 | 1.24 | 0.828 | 0.732 | 0.752 | 0.429 | 0.291 | 0.172 | 0.115 | 0.347 | 0.226 | 0.113 | 0.0963 | 0.103 | 0.958
5 | PC-3 [JPC-3] | 0.781 | 0.67 | 0.628 | 0.616 | 0.65 | 0.88 | 0.821 | 0.754 | 0.729 | 0.588 | 0.923 | 0.679 | 0.383 | 0.386 | 0.903 | 0.785 | 0.652 | 0.366 | 0.275 | 0.975
6 | PC-14 | 0.785 | 0.751 | 0.692 | 0.407 | 0.14 | 0.864 | 0.923 | 0.716 | 0.369 | 0.133 | 0.79 | 0.366 | 0.143 | 0.144 | 0.592 | 0.569 | 0.605 | 0.177 | 0.0608 | 0.975
7 | RERF-LC-KJ | 0.863 | 0.876 | 0.785 | 0.696 | 0.53 | 0.585 | 0.639 | 0.541 | 0.464 | 0.343 | 0.463 | 0.198 | 0.188 | 0.234 | 0.471 | 0.366 | 0.193 | 0.202 | 0.201 | 0.64
8 | SK-LU-1 | 0.584 | 0.525 | 0.485 | 0.441 | 0.356 | 0.444 | 0.387 | 0.339 | 0.292 | 0.213 | 0.443 | 0.19 | 0.181 | 0.216 | 0.356 | 0.295 | 0.171 | 0.0898 | 0.111 | 0.747
9 | SK-MES-1 | 0.645 | 0.469 | 0.524 | 0.556 | 0.565 | 0.684 | 0.609 | 0.699 | 0.628 | 0.553 | 0.825 | 0.35 | 0.215 | 0.207 | 0.773 | 0.682 | 0.33 | 0.157 | 0.189 | 0.976
10 | SW 1573 | 0.677 | 0.539 | 0.528 | 0.555 | 0.387 | 0.653 | 0.694 | 0.67 | 0.617 | 0.437 | 0.766 | 0.389 | 0.0982 | 0.0789 | 0.235 | 0.207 | 0.0978 | 0.0941 | 0.0688 | 0.928
